{"source": "paper PMC6743424", "about": "“Phenolic acid phenethylesters and their corresponding ketones: Inhibition of 5‐lipoxygenase and stability in human blood and HepaRG cells” (Pharmacology Research & Perspectives, 2019)", "key": {"HepaRG cells": {"system": "HepaRG cells", "test": "Kinetics of test compound disappearance in HepaRG cell culture (HPLC)", "assay_type": "in vitro ADME, human", "settings": "30 µmol/L, 37°C; mean (95% confidence interval), four experiments", "procedure": "Undifferentiated cryopreserved HepaRG cells (BioPredic International) were seeded in 12 or 24 well plates at 1.1 × 10^5 and 0.55 × 10^5 cells per well, respectively. Cells were cultured for 14 days in Williams E‐medium supplemented with 1% penicillin‐streptomycin (10 000 U/mL), 10% fœtal bovine serum (FBS), 50 mg/L hydrocortisone hemisuccinate, 5 mg/L insulin and 2 mmol/L Glutamax, and the medium was renewed every 2‐3 days. After 14 days, the culture medium was replaced by the same formulation as above supplemented with 2% dimethyl sulfoxide (DMSO) to induce differentiation. Cells were considered differentiated and ready for experiments after 14 days of differentiation (28 days after seeding).\nDifferentiated HepaRG cells, plated in 24 well plates, were washed with hepatocyte suspension medium (Williams E‐medium without phenol red, supplemented with 2 mmol/L Glutamax and […] HEPES) before addition of hepatocyte suspension medium (250 µL/well) containing (30 or 50 µmol/L) of the test compounds or their diluent. Cells were then incubated for 7.5, 15, 30, 60 or 90 minutes at 37°C after which the medium was removed.\nIn experiments where the test compounds incubated with HepaRG cells were to be measured, the cell layer was washed with 250 µL of hepatocyte suspension medium which was then pooled with the first medium. The mixture was then added to 250 µL of ice cold CH3OH:CH3CN (1:1, vol:vol) containing 10 µmol/L of phenethyl 3,4,5‐trimethoxycinnamate as an internal standard. The resulting solution was frozen at −80°C for 2 hour to precipitate any dissolved proteins, centrifuged at 1800g and the supernatant transferred to vials and stored at −20°C until HPLC analysis.\nFigure 5 Kinetics of test compound disappearance in HepaRG cell culture. (A) HepaRG cells were incubated in 250 µL of hepatocyte suspension medium containing 30 µmol/L of test compounds for the indicated times at 37°C. Supernatants were removed and added to 250 µL of ice cold CH3OH:CH3CN (1:1 vol:vol) containing 10 µmol/L of phenethyl 3,4,5‐trimethoxycinnamate as an internal standard. The cell layer was washed with 250 µL of hepatocyte suspension medium and added to the above mixture. Samples were centrifuged at 1900g and the supernatants were collected for HPLC analysis as described in the Methods. Values are means ± SEM. (B) Calculated half‐lives of the test compounds in HepaRG cell cultures. Values are means (95% confidence interval). All data are from four independent experiments TEXT PRINTED IN THE PICTURE: (B) CAPE (2): Half-life (Minutes): 4.70 (4.42 - 5.02) | (B) 7: Half-life (Minutes): 6.42 (5.72 -7.31) | (B) 5: Half-life (Minutes): 3.71 (3.67-3.74) | (B) 8: Half-life (Minutes): 6.48 (6.01-7.04) | (B) 9: Half-life (Minutes): 4.38 (4.23 - 4.55) | (B) 10: Half-life (Minutes): 11.32 (10.21- 12.71)"}, "5‐LO": {"biological_target": "T1, 5‐LO (Homo sapiens, UniProt P09917)", "T1 sequence (P09917 1-674)": "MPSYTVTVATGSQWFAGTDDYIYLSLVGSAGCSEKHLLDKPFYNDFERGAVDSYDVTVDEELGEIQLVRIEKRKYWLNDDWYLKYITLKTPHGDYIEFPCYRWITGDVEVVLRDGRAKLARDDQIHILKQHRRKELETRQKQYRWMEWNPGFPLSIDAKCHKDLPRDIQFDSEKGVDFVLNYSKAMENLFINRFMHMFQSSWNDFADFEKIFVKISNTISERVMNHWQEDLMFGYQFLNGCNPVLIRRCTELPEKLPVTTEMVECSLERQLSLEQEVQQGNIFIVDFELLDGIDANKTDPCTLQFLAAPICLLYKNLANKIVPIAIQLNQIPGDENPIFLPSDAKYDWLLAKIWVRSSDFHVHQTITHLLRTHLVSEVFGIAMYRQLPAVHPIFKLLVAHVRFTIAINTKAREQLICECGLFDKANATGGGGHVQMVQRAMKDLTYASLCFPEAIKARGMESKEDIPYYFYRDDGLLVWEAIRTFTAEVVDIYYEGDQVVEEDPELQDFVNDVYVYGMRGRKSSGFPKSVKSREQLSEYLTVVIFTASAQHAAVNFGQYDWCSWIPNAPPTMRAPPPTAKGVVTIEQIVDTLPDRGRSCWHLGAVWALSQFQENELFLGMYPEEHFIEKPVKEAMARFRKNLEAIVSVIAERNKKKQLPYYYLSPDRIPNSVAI", "test": "Biosynthesis of 5‐LO products in thapsigargin‐stimulated human PMNL", "assay_type": "cell-based", "set-up": "endogenous in cells; host or cells: human polymorphonuclear leukocytes isolated from heparinized blood", "settings": "for IC50: 5‐LO product biosynthesis in human PMNL, mean (95% confidence interval); for Inhibition of LT biosynthesis in human PMNL: 1 μmol/L, 5 min, 1 μmol/L thapsigargin 15 min", "procedure": "Heparinized blood (see Ethics statement) was collected, centrifuged at 200g for 10 minutes to collect plasma, and erythrocytes were sedimented in dextran. PMNL were obtained after centrifugation on a lymphocyte separation medium cushion (density, 1.077 g/mL) (Wisent) at 900 g for 20 minutes, followed by hypotonic lysis to remove residual erythrocytes.33 PMNL were counted and resuspended at 10^7 cells/mL in HBSS supplemented with 1.6 mmol/L CaCl2 and 0.3 U/mL adenosine deaminase (Sigma‐Aldrich). PMNL were preincubated with the test compounds or their diluent (0.1% DMSO) for 5 minutes at 37°C and were then stimulated with 1 µmol/L thapsigargin (Sigma‐Aldrich) for 15 minutes at 37°C.27 Reactions were stopped by adding two volumes of CH3OH:CH3CN (1:1) containing the internal standard PGB2 (100 ng/mL), and samples were processed for RP‐HPLC analysis of 5‐LO products.\n(A) The structures of CAPE (2) and its analogues investigated in this study. (B) Isolated human PMNL were incubated in presence of test compounds (1 μmol/L) or their diluent (Control, 0.1% DMSO) for 5 minutes. PMNL were stimulated with 1 μmol/L of thapsigargin for 15 minutes at 37°C. The stimulation was then stopped, and samples were processed for analysis of 5‐LO products using RP‐HPLC. Total 5‐LO products measured represent LTB4, its trans isomers, 20‐OH‐LTB4, 20‐COOH‐LTB4 and 5‐hydroxyeicosatetraenoic acid. Data are expressed as means ± SEM of at least three independent experiments. *Difference from control, as determined using one‐way ANOVA with Dunnett's multiple comparison test (P < .05)"}}}
{"smiles": "O=C(/C=C/c1ccc(O)c(O)c1)OCCc1ccccc1", "note": "[CAPE (2), caffeic acid phenethyl ester, reference compound]", "values": [{"measurement": "Half-life in HepaRG cell cultures", "setting": "HepaRG cells", "result": "4.70 (4.42 - 5.02) Minutes"}, {"measurement": "IC50", "setting": "5‐LO", "result": 970, "unit": "nM"}]}
{"smiles": "O=C(/C=C/c1cc(O)ccc1O)OCCc1ccccc1", "note": "[compound 5]", "values": [{"measurement": "Half-life in HepaRG cell cultures", "setting": "HepaRG cells", "result": "3.71 (3.67-3.74) Minutes"}, {"measurement": "Inhibition of LT biosynthesis in human PMNL", "setting": "5‐LO", "result": "near complete inhibition"}, {"measurement": "IC50", "setting": "5‐LO", "result": 320, "unit": "nM"}]}
{"smiles": "O=C(/C=C/c1ccc(O)c(O)c1)CCCc1ccccc1", "note": "[compound 7]", "values": [{"measurement": "Half-life in HepaRG cell cultures", "setting": "HepaRG cells", "result": "6.42 (5.72 -7.31) Minutes"}, {"measurement": "Inhibition of LT biosynthesis in human PMNL", "setting": "5‐LO", "result": "near complete inhibition"}, {"measurement": "IC50", "setting": "5‐LO", "result": 520, "unit": "nM"}]}
{"smiles": "O=C(/C=C/c1cc(O)ccc1O)CCc1ccccc1", "note": "[compound 8]", "values": [{"measurement": "Half-life in HepaRG cell cultures", "setting": "HepaRG cells", "result": "6.48 (6.01-7.04) Minutes"}, {"measurement": "IC50", "setting": "5‐LO", "result": 510, "unit": "nM"}]}
{"smiles": "COc1cc(/C=C/C(=O)CCc2ccccc2)cc(OC)c1O", "note": "[compound 10, sinapic acid phenethyl ketone]", "values": [{"measurement": "Half-life in HepaRG cell cultures", "setting": "HepaRG cells", "result": "11.32 (10.21- 12.71) Minutes"}, {"measurement": "Inhibition of LT biosynthesis in human PMNL", "setting": "5‐LO", "result": "near complete inhibition"}, {"measurement": "IC50", "setting": "5‐LO", "result": 410, "unit": "nM"}]}
